The experiment is described as follows: Cytotoxicity against human MONO-MAC 6 cells assessed as [3H]thymidine incorporation after 48 hrs. Type of experiment: functional, cell-based. (In general: Dividing cells build labelled thymidine or BrdU into new DNA.)

Values after ≈ are worked out from the molar mass of the structure shown.

As to `NC1=N/C(=C2/CCNC(=O)c3[nH]ccc32)C(=O)N1` [DEBROMOHYMENIALDISINE], the IC50 was determined as 2.4 µg/mL (≈ 9.79 µM).

Turning to `NC1=NC(=O)/C(=C2\CCNC(=O)c3[nH]c(Br)cc32)N1` [HYMENIALDISINE], the IC50 amounted to 0.2 µg/mL (≈ 0.617 µM).

As a reminder, the IC50 is the concentration needed to halve the response being measured.

These data come from ChEMBL document CHEMBL1158004, “New alkaloids from the indopacific sponge Stylissa carteri” (J Nat Prod, 1999).
